Laboratory results as given in patent US20240024488A1, “COMPOUNDS AND USES THEREOF” (Foghorn Therapeutics Inc., priority 2020, published 2024).

Key:
[1] = target: T1, HiBit-BRG1 fusion protein (Homo sapiens, UniProt P51532); test: HiBiT-BRG1 cell-based degradation assay (Nano-Glo HiBiT Lytic Detection, 24 h); conditions: HeLa cell line expressing HiBit-BRG1 and LgBit; for Dmax: read-out: BRG1 HiBit Degradation Maximum (%); for DC50: read-out: BRMG1 HiBit Degradation IC50
T1 construct: expressed in transfected cells
Procedure, shortened: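 Luminescence from reconstituted NanoBiT luciferase after lytic detection served as read-out of remaining HiBit-BRG1 in stable HeLa cells, which also express LgBit. Cells were seeded at 5000 per well and incubated with compound for 24 h. DMSO and a 2 μM known degrader defined the control range.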

HiBit-BRM fusion protein = target: T2, HiBit-BRM fusion protein (Homo sapiens, UniProt P51531); test: HiBiT-BRM cell-based degradation assay (Nano-Glo HiBiT Lytic Detection, 24 h); conditions: HeLa cell line expressing HiBiT-BRM; for DC50: read-out: BRM HiBit Degradation IC50
T2 construct: expressed in transfected cells
Procedure, shortened: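 Percent BRM loss was derived from HiBiT luminescence relative to DMSO-treated cells and cells given 2 μM of a known BRM/BRG1 degrader. Treatment lasted 24 h in HiBiT-BRM HeLa cells, with a top final concentration of 30 μM.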

T1 sequence (P51532 whole entry, the tested form may be a part): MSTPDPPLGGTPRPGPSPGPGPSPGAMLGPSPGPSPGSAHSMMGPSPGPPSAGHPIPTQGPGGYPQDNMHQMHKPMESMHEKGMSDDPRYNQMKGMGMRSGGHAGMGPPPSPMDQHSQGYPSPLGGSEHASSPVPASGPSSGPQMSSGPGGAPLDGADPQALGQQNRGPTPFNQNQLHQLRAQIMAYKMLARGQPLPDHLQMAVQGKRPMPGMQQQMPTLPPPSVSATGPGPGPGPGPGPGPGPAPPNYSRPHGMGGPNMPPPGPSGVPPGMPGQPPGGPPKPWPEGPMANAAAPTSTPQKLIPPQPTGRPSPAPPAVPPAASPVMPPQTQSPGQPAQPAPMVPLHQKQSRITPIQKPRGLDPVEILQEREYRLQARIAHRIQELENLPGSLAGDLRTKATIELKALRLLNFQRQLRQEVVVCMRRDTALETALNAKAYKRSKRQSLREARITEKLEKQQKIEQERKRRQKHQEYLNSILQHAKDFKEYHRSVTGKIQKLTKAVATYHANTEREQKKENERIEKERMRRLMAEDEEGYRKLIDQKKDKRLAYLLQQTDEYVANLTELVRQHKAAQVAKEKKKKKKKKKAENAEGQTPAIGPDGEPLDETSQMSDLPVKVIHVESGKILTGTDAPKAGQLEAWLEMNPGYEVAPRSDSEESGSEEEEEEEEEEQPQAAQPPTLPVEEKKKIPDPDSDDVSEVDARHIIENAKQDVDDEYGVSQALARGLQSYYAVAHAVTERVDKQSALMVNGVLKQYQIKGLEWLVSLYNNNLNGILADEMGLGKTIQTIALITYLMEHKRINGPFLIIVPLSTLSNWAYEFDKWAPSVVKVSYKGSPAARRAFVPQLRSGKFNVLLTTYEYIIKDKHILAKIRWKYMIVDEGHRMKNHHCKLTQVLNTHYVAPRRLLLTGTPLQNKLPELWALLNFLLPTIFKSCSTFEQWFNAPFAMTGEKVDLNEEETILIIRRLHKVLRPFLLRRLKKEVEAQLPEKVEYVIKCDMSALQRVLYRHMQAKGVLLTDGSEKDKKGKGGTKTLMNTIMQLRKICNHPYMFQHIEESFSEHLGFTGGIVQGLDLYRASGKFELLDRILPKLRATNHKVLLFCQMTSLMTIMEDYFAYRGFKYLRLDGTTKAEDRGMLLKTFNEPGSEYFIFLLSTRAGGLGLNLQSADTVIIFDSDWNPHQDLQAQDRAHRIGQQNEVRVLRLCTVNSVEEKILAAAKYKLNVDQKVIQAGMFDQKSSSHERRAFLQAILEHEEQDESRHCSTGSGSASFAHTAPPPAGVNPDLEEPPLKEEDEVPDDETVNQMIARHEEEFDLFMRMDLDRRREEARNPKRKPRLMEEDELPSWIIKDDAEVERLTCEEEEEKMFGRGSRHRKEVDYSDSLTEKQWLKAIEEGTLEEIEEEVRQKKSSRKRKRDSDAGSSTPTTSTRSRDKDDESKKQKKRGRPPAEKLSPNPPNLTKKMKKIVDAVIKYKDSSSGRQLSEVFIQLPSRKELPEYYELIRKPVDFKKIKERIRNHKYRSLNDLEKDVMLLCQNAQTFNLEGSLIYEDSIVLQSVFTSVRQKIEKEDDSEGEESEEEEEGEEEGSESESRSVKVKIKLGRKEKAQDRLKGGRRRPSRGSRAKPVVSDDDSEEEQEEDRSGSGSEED
T2 sequence (P51531 whole entry, the tested form may be a part): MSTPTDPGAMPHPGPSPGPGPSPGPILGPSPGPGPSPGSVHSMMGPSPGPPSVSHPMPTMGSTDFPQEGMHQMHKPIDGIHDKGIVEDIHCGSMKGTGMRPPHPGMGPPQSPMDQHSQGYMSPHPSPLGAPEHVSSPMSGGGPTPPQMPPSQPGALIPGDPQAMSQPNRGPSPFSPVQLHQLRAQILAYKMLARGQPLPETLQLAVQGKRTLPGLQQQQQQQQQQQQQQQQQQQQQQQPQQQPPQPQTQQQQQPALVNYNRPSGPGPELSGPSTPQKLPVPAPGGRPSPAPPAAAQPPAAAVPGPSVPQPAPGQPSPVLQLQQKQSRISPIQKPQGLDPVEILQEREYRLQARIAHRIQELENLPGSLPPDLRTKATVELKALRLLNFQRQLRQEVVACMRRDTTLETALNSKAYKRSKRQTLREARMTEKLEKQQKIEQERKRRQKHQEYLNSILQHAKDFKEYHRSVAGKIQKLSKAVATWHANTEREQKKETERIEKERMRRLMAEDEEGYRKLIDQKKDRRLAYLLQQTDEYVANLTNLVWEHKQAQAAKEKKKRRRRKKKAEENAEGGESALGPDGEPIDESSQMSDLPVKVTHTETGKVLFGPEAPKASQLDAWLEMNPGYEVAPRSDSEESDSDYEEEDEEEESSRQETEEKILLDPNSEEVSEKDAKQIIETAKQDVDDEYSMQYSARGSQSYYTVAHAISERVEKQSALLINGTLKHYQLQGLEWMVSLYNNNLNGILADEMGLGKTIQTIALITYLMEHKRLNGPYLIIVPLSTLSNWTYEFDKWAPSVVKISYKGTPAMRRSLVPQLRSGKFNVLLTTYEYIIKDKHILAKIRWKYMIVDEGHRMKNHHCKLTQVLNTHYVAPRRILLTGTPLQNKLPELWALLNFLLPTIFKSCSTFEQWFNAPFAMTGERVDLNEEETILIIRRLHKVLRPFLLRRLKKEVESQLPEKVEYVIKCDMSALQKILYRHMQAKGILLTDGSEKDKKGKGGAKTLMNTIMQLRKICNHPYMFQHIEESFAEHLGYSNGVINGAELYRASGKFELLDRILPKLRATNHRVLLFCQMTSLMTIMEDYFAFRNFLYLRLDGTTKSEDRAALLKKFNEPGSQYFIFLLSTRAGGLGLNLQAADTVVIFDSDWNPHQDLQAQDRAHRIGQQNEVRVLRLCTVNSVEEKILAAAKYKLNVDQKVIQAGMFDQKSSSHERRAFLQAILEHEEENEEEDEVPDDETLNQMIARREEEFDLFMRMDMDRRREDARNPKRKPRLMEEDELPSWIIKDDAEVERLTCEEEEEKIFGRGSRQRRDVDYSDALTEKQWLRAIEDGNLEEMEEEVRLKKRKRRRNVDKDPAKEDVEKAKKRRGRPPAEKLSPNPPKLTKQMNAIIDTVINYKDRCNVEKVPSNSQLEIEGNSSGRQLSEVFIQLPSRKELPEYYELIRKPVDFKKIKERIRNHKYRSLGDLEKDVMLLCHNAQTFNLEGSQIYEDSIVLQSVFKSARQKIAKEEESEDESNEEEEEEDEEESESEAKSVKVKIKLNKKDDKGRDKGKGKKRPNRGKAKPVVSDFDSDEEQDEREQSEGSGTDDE

Row | Structure (SMILES) | Dmax [1] | DC50 [1] | BRM HiBit Degradation Maximum (%) (HiBit-BRM fusion protein) | DC50 (HiBit-BRM fusion protein)
1 | Cc1ncsc1-c1ccc([C@H](C)NC(=O)[C@@H]2C[C@@H](O)CN2C(=O)[C@@H](c2cc(OCCNC3CC4(C3)CC(c3cc5cc(-c6ccccc6O)nnc5[nH]3)C4)no2)C(C)C)cc1 (mixture of isomers) [Compound 223, (2S,4R)-4-hydroxy-1-((R)-2-(3-(2-((6-(3-(2-hydroxyphenyl)-7H-pyrrolo[2,3-c]pyridazin-6-yl)spiro[3.3]heptan-2-yl)amino)ethoxy)isoxazol-5-yl)-3-methylbutanoyl)-N-((S)-1-(4-(4-methylthiazol-5-yl)phenyl)ethyl)pyrrolidine-2-carboxamide] | > 75% | > 100 nM | A (“A” indicates maximum degradation ≥ 75%) | > 10 nM
2 | Cc1ncsc1-c1ccc([C@H](C)NC(=O)[C@@H]2C[C@@H](O)CN2C(=O)[C@@H](c2cc(OCCN3C[C@@H]4[C@H](C3)[C@H]4c3cc4cc(-c5cc(F)ccc5O)nnc4[nH]3)no2)C(C)C)cc1 (racemic) [Compound 224, (2S,4R)-1-((R)-2-(3-(2-((1R,5S,6R)-6-(3-(5-fluoro-2-hydroxyphenyl)-7H-pyrrolo[2,3-c]pyridazin-6-yl)-3-azabicyclo[3.1.0]hexan-3-yl)ethoxy)isoxazol-5-yl)-3-methylbutanoyl)-4-hydroxy-N-((S)-1-(4-(4-methylthiazol-5-yl)phenyl)ethyl)pyrrolidine-2-carboxamide] | > 50% | > 1000 nM | A (“A” indicates maximum degradation ≥ 75%) | > 10 nM
3 | Cc1ncsc1-c1ccc([C@H](C)NC(=O)[C@@H]2C[C@@H](O)CN2C(=O)[C@@H](c2cc(OCCN3C[C@@H]4[C@H](C3)[C@H]4c3cc4cc(-c5cc(F)cc(Cl)c5O)nnc4[nH]3)no2)C(C)C)cc1 (racemic) [Compound 225, (2S,4R)-1-((R)-2-(3-(2-((1R,5S,6R)-6-(3-(3-chloro-5-fluoro-2-hydroxyphenyl)-7H-pyrrolo[2,3-c]pyridazin-6-yl)-3-azabicyclo[3.1.0]hexan-3-yl)ethoxy)isoxazol-5-yl)-3-methylbutanoyl)-4-hydroxy-N-((S)-1-(4-(4-methylthiazol-5-yl)phenyl)ethyl)pyrrolidine-2-carboxamide] | < 50% |  | A (“A” indicates maximum degradation ≥ 75%) | > 10 nM
4 | Cc1ncsc1-c1ccc([C@H](C)NC(=O)[C@@H]2C[C@@H](O)CN2C(=O)[C@@H](c2cc(OCCN3CC4(C3)CN(c3cc5cc(-c6ccccc6O)nnc5[nH]3)C4)no2)C(C)C)cc1 (racemic) [Compound 226, (2S,4R)-4-hydroxy-1-[(2R)-2-[3-(2-{6-[3-(2-hydroxyphenyl)-7H-pyrrolo[2,3-c]pyridazin-6-yl]-2,6-diazaspiro[3.3]heptan-2-yl}ethoxy)-1,2-oxazol-5-yl]-3-methylbutanoyl]-N-[(1S)-1-[4-(4-methyl-1,3-thiazol-5-yl)phenyl]ethyl]pyrrolidine-2-carboxamide] | > 75% | > 100 nM | A (“A” indicates maximum degradation ≥ 75%) | > 100 nM
5 | Cc1ncsc1-c1ccc([C@H](C)NC(=O)[C@@H]2C[C@@H](O)CN2C(=O)[C@@H](c2cc(OCCCN3CC(c4[nH]c5nnc(-c6ccccc6O)cc5c4C)C3)no2)C(C)C)cc1 (racemic) [Compound 229, (2S,4R)-4-hydroxy-1-((R)-2-(3-(3-(3-(3-(2-hydroxyphenyl)-5-methyl-7H-pyrrolo[2,3-c]pyridazin-6-yl)azetidin-1-yl)propoxy)isoxazol-5-yl)-3-methylbutanoyl)-N-((S)-1-(4-(4-methylthiazol-5-yl)phenyl)ethyl)pyrrolidine-2-carboxamide] | < 50% |  | A (“A” indicates maximum degradation ≥ 75%) | > 1000 nM
6 | Cc1ncsc1-c1ccc([C@H](C)NC(=O)[C@@H]2C[C@@H](O)CN2C(=O)[C@@H](c2cc(OCCNCCC(=O)N3CC(c4c[nH]c5nnc(-c6ccccc6O)cc45)C3)no2)C(C)C)cc1 (racemic) [Compound 230, (2S,4R)-4-hydroxy-1-((R)-2-(3-(2-((3-(3-(3-(2-hydroxyphenyl)-7H-pyrrolo[2,3-c]pyridazin-5-yl)azetidin-1-yl)-3-oxopropyl)amino)ethoxy)isoxazol-5-yl)-3-methylbutanoyl)-N-((S)-1-(4-(4-methylthiazol-5-yl)phenyl)ethyl)pyrrolidine-2-carboxamide] | < 50% |  | B (“B” indicates maximum degradation ≥ 50%) | > 1000 nM
7 | Cc1ncsc1-c1ccc([C@H](C)NC(=O)[C@@H]2C[C@@H](O)CN2C(=O)C(c2cc(N3CCC(C(=O)N4CC(c5c[nH]c6nnc(-c7ccccc7O)cc56)C4)CC3)no2)C(C)C)cc1 (mixture of isomers) [Compound 231, (2S,4R)-4-hydroxy-1-((S)-2-(3-(4-(3-(3-(2-hydroxyphenyl)-7H-pyrrolo[2,3-c]pyridazin-5-yl)azetidine-1-carbonyl)piperidin-1-yl)isoxazol-5-yl)-3-methylbutanoyl)-N-((S)-1-(4-(4-methylthiazol-5-yl)phenyl)ethyl)pyrrolidine-2-carboxamide] | < 50% |  | A (“A” indicates maximum degradation ≥ 75%) | > 100 nM
8 | Cc1ncsc1-c1ccc([C@H](C)NC(=O)[C@@H]2C[C@@H](O)CN2C(=O)[C@@H](c2cc(OCCN3CCN(c4cc5cc(-c6ccccc6O)nnc5[nH]4)CC3)no2)C(C)C)cc1 (racemic) [Compound 235, (2S,4R)-4-hydroxy-1-((R)-2-(3-(2-(4-(3-(2-hydroxyphenyl)-7H-pyrrolo[2,3-c]pyridazin-6-yl)piperazin-1-yl)ethoxy)isoxazol-5-yl)-3-methylbutanoyl)-N-((S)-1-(4-(4-methylthiazol-5-yl)phenyl)ethyl)pyrrolidine-2-carboxamide] | > 75% | > 10 nM | A (“A” indicates maximum degradation ≥ 75%) | > 10 nM
9 | Cc1ncsc1-c1ccc([C@H](C)NC(=O)[C@@H]2C[C@@H](O)CN2C(=O)C(c2cc(N3CCC(C(=O)N4CC(c5c[nH]c6nnc(-c7ccccc7O)cc56)C4)CC3)no2)C(C)C)cc1 (mixture of isomers) [Compound 236, (2S,4R)-4-hydroxy-1-((R)-2-(3-(4-(3-(3-(2-hydroxyphenyl)-7H-pyrrolo[2,3-c]pyridazin-5-yl)azetidine-1-carbonyl)piperidin-1-yl)isoxazol-5-yl)-3-methylbutanoyl)-N-((S)-1-(4-(4-methylthiazol-5-yl)phenyl)ethyl)pyrrolidine-2-carboxamide] | < 50% |  | C (“C” indicates maximum degradation < 50%) | 
10 | Cc1ncsc1-c1ccc([C@H](C)NC(=O)[C@@H]2C[C@@H](O)CN2C(=O)[C@@H](c2cc(OCCN3CC(c4[nH]c5nnc(-c6ccccc6O)cc5c4Cl)C3)no2)C(C)C)cc1 (racemic) [Compound 238, (2S,4R)-1-[(2R)-2-[3-(2-{3-[5-chloro-3-(2-hydroxyphenyl)-7H-pyrrolo[2,3-c]pyridazin-6-yl]azetidin-1-yl}ethoxy)-1,2-oxazol-5-yl]-3-methylbutanoyl]-4-hydroxy-N-[(1S)-1-[4-(4-methyl-1,3-thiazol-5-yl)phenyl]ethyl]pyrrolidine-2-carboxamide] | < 50% |  | A (“A” indicates maximum degradation ≥ 75%) | > 10 nM
